In PubChem BioAssay (NCI):
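Cultured in 96-well plates, cells were exposed to test compound for 48 hours across five concentrations. Here, GI50 denotes the concentration required for 50% inhibition of growth. TGI: concentration producing complete growth inhibition.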

How the values were obtained:
Assay in all cases: inhibition of tumour cell growth, NCI panel, 48 h
M19-MEL melanoma = test system: M19-MEL melanoma
LXFL 529 NSCLC = test system: LXFL 529 NSCLC
RXF-631 renal = test system: RXF-631 renal
HOP-18 NSCLC = test system: HOP-18 NSCLC
KM20L2 colon = test system: KM20L2 colon
DMS 273 small cell lung = test system: DMS 273 small cell lung
SNB-78 CNS = test system: SNB-78 CNS
DLD-1 colon = test system: DLD-1 colon
XF 498 CNS = test system: XF 498 CNS

SMILES: O=C1NC(=O)C(CCC(=O)c2ccc3ccccc3c2)C(=O)N1
- TGI (M19-MEL melanoma): > 100 µM
- TGI (LXFL 529 NSCLC): > 100 µM
- TGI (RXF-631 renal): > 100 µM
- TGI (HOP-18 NSCLC): > 100 µM
- TGI (KM20L2 colon): > 100 µM
- TGI (DMS 273 small cell lung): > 100 µM
- TGI (SNB-78 CNS): > 100 µM
- TGI (DLD-1 colon): > 100 µM
- TGI (XF 498 CNS): > 100 µM

SMILES: O=C(NC12CC3CC(CC(F)(C3)C1)C2)c1ccccc1
- TGI (M19-MEL melanoma): > 100 µM
- TGI (LXFL 529 NSCLC): > 100 µM
- TGI (KM20L2 colon): > 100 µM
- TGI (DMS 273 small cell lung): > 100 µM
- TGI (SNB-78 CNS): > 100 µM
- TGI (DLD-1 colon): > 100 µM
- TGI (XF 498 CNS): > 100 µM

SMILES: NC(=S)N1N=C2c3ccccc3CC[C@@H]2[C@@H]1c1ccccc1
- TGI (M19-MEL melanoma): 47.2 µM
- TGI (LXFL 529 NSCLC): 97.6 µM
- TGI (RXF-631 renal): > 100 µM
- TGI (HOP-18 NSCLC): > 100 µM
- TGI (KM20L2 colon): 16.3 µM
- TGI (DMS 273 small cell lung): 20.7 µM
- TGI (SNB-78 CNS): > 82 µM
- TGI (DLD-1 colon): > 86.4 µM

SMILES: Cc1cccc(C(C)C)c1NC(=O)/C(Cc1c([N+](=O)[O-])cccc1[N+](=O)[O-])=N/NC(=O)CC#N
- TGI (M19-MEL melanoma): > 100 µM
- TGI (LXFL 529 NSCLC): > 100 µM
- TGI (RXF-631 renal): > 100 µM
- TGI (HOP-18 NSCLC): > 100 µM
- TGI (KM20L2 colon): > 100 µM
- TGI (DMS 273 small cell lung): > 100 µM
- TGI (DLD-1 colon): > 100 µM

SMILES: [Cl-].[Rh+3].c1cnc2c(c1)ccc1cccnc12.c1cnc2c(c1)ccc1cccnc12.c1cnc2c(c1)ccc1cccnc12
- GI50 (LXFL 529 NSCLC): > 100 µM
- TGI (LXFL 529 NSCLC): > 100 µM
- GI50 (KM20L2 colon): > 100 µM
- TGI (KM20L2 colon): > 100 µM
- GI50 (SNB-78 CNS): > 100 µM
- TGI (SNB-78 CNS): > 100 µM

SMILES: CC1OC(OC2C(OC(=O)[C@]34CCC(C)(C)CC3C3=CCC5[C@@]6(C)C[C@H](O)[C@H](OC7OC(CO)C(O)C(O)C7N)[C@@](C)(C(=O)O)C6CC[C@@]5(C)C3(C)CC4)OCC(O)C2O)C(O)C(O)C1OC1OCC(O)C(O)C1O (some centres undefined)
- TGI (M19-MEL melanoma): > 100 µM
- TGI (HOP-18 NSCLC): > 100 µM
- TGI (KM20L2 colon): > 100 µM
- TGI (DMS 273 small cell lung): > 100 µM
- TGI (SNB-78 CNS): > 100 µM
- TGI (DLD-1 colon): > 100 µM

SMILES: O=C1c2ccccc2C(=O)c2c1cc(S(=O)(=O)O)c(O)c2O
- TGI (M19-MEL melanoma): > 100 µM
- TGI (LXFL 529 NSCLC): > 100 µM
- TGI (RXF-631 renal): > 100 µM
- TGI (SNB-78 CNS): > 100 µM
- TGI (DLD-1 colon): > 100 µM
- TGI (XF 498 CNS): 32.6 µM
